According to the supplement of paper PMC13380429:

Columns and labels:
[1] = test system: A549-ACE2 infected with SARS-CoV-2; assay: cell count relative to DMSO; higher = less toxic; settings: 24 h
[2] = test system: Caco-2; assay: relative viability EC50 (midpoint between 100% and the lowest measured viability); higher = less toxic; settings: 72 h
[3] = test system: Vero E6; assay: as above; settings: 72 h
[4] = test system: U2OS; assay: as above; settings: 72 h
[5] = test system: HepG2; assay: as above; settings: 72 h
[6] = test system: A549-ACE2; assay: drug-induced phospholipidosis relative to tamoxifen; higher = more phospholipidosis
[7] = test system: Caco-2; assay: drug sensitivity score (DSS) for viability; higher = more toxic; extreme values may be limits of the assay; settings: 72 h
[8] = test system: Vero E6; assay: as above; settings: 72 h
[9] = test system: U2OS; assay: as above; settings: 72 h
[10] = test system: HepG2; assay: as above; settings: 72 h
[11] = test system: A549-ACE2 infected with SARS-CoV-2; assay: morphology score (similarity to uninfected cells); higher = more like uninfected cells; settings: 24 h
[12] = test system: A549-ACE2 infected with SARS-CoV-2; assay: SARS-CoV-2 infection rate relative to DMSO; higher = more infection; settings: 24 h
[13] = test system: A549-ACE2; assay: phospholipidosis EC50; higher = less potent phospholipidosis inducer
[14] = test system: Caco-2; assay: cell viability relative to DMSO; higher = less toxic; settings: 72 h
[15] = test system: Vero E6; assay: as above; settings: 72 h
[16] = test system: U2OS; assay: as above; settings: 72 h
[17] = test system: HepG2; assay: as above; settings: 72 h
[18] = test system: Calu-3; assay: relative viability EC50 (midpoint between 100% and the lowest measured viability); higher = less toxic; settings: 72 h
[19] = test system: Calu-3; assay: drug sensitivity score (DSS) for viability; higher = more toxic; extreme values may be limits of the assay; settings: 72 h
[20] = test system: Calu-3; assay: cell viability relative to DMSO; higher = less toxic; settings: 72 h

O=C(OC(C(F)(F)F)C(F)(F)F)N1CCN(Cc2cccc(Oc3ccccc3)c2)CC1 [JW-642]
Settings	SARS-CoV-2 infection rate [%]	cell count [%]	cell viability [%]	morphology score	phospholipidosis EC50 [nM]
[1], 0.3 µM	–	103	–	–	–
[1], 3 µM	–	111	–	–	–
[1], 10 µM	–	105	–	–	–
[1], 30 µM	–	105	–	–	–
[11], 0.3 µM	–	–	–	-0.02	–
[11], 3 µM	–	–	–	0.31	–
[11], 10 µM	–	–	–	-0.04	–
[11], 30 µM	–	–	–	0.29	–
[12], 0.3 µM	100	–	–	–	–
[12], 3 µM	88	–	–	–	–
[12], 10 µM	99	–	–	–	–
[12], 30 µM	90	–	–	–	–
[13], 24 h	–	–	–	–	722
[13], 48 h	–	–	–	–	1170
[13], 72 h	–	–	–	–	1220
[14], 1 nM	–	–	98.3	–	–
[14], 10 nM	–	–	106	–	–
[14], 100 nM	–	–	99.4	–	–
[14], 1000 nM	–	–	100	–	–
[14], 10000 nM	–	–	92.4	–	–
[15], 1 nM	–	–	93.1	–	–
[15], 10 nM	–	–	106	–	–
[15], 100 nM	–	–	96.3	–	–
[15], 1000 nM	–	–	90.5	–	–
[15], 10000 nM	–	–	102	–	–
[16], 1 nM	–	–	101	–	–
[16], 10 nM	–	–	98.1	–	–
[16], 100 nM	–	–	102	–	–
[16], 1000 nM	–	–	95.7	–	–
[16], 10000 nM	–	–	97.6	–	–
[17], 1 nM	–	–	100	–	–
[17], 10 nM	–	–	116	–	–
[17], 100 nM	–	–	87.7	–	–
[17], 1000 nM	–	–	109	–	–
[17], 10000 nM	–	–	101	–	–

Settings	drug sensitivity score	relative viability EC50 [µM]
[2]	–	> 10
[3]	–	> 10
[4]	–	> 10
[5]	–	> 10
[7]	0	–
[8]	0	–
[9]	0	–
[10]	0	–

drug-induced phospholipidosis [%], [6]
Settings	0.3 µM	0.833333 µM	3.33333 µM	6.66667 µM	10 µM	30 µM
24 h	6.56	21.9	39.6	46.5	46.2	54.6
48 h	5.07	23.9	54.4	65.2	57.8	68.1
72 h	4.87	23.8	62.1	70.4	64.8	73.8

COc1cc2c(NC3CCN(C4CCCCC4)CC3)nc(N3CCCN(C(C)C)CC3)nc2cc1OCCCN1CCCCC1 [UNC0646]
Settings	SARS-CoV-2 infection rate, [12] [%]	cell count, [1] [%]	cell viability, [14] [%]	cell viability, [15] [%]	cell viability, [16] [%]	cell viability, [17] [%]	cell viability, [20] [%]	morphology score, [11]
1 nM	–	–	96	92.2	103	88.2	96.5	–
10 nM	–	–	97.6	97.6	102	96.7	92.3	–
100 nM	–	–	100	94.3	107	90.9	93.6	–
0.3 µM	92	106	–	–	–	–	–	0.28
1000 nM	–	–	97.6	92	97	102	90.4	–
3 µM	68	110	–	–	–	–	–	0.67
10 µM	26	112	–	–	–	–	–	0.92
10000 nM	–	–	93.9	100	94.7	65.3	83.9	–
30 µM	47	25	–	–	–	–	–	-0.11

Settings	drug sensitivity score	relative viability EC50 [µM]
[2]	–	> 10
[3]	–	> 10
[4]	–	> 10
[7]	0	–
[8]	0	–
[9]	0	–
[10]	1.5	–
[18]	–	> 10
[19]	0.6	–

drug-induced phospholipidosis [%], [6]
Settings	0.3 µM	0.833333 µM	3.33333 µM	6.66667 µM	10 µM	30 µM
24 h	-0.25	5.64	3.14	8.62	22	44.4
48 h	1.05	5.57	5.07	9.69	24.5	45.2
72 h	0.206	4.62	7.33	11.5	28	–
